Assay [1] addresses T1, TRPV1 (Homo sapiens, UniProt Q8NER1). Type of assay: cell-based.
The target in assay [2] is T1, TRPV1. The experiment in a line: whole-cell patch clamp, agonist current at […]. The assay is classed as cell-based. A general note: The patch-clamp technique gives a direct electrical read-out from membranes.

The record followed here is article PMC7589233 (The Journal of Physiology, 2020).

T1 sequence (Q8NER1 whole entry): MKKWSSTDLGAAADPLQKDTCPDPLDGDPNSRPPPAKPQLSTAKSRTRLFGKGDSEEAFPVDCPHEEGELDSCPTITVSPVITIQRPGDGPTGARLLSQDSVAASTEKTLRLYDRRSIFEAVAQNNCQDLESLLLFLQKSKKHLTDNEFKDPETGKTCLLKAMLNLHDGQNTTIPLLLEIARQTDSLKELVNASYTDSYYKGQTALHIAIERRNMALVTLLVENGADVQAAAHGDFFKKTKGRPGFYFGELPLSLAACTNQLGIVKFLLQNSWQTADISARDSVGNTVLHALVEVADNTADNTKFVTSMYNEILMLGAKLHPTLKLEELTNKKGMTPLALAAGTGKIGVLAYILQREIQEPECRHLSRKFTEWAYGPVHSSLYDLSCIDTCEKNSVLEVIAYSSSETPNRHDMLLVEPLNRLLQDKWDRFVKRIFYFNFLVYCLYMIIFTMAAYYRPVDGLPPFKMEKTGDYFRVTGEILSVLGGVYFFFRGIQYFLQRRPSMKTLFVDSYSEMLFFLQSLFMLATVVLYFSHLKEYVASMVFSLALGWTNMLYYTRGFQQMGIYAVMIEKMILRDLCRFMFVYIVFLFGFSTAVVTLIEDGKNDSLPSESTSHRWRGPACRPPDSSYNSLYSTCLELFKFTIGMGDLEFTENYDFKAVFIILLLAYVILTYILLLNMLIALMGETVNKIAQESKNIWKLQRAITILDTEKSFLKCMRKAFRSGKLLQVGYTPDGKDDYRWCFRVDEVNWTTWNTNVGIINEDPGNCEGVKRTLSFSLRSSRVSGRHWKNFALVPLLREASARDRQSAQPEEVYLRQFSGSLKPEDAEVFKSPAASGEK

As a reminder, the IC50 is the concentration that inhibits the measured activity by half. Low values mean greater potency in that assay, high ones weaker potency in that assay. At TRPV1 [1], `C=C1CC[C@H](O)C/C1=C/C=C1\CCC[C@]2(C)[C@@H]([C@H](C)CCCC(C)(C)O)CC[C@@H]12` [25OHD, 25-Hydroxyvitamin D] displayed an IC50 of 34.3 ± 0.2 nM.

On to `CCCCCCCC/C=C\CCCCCCCC(=O)NCCc1ccc(O)c(O)c1` [OLDA, N-oleoyldopamine], for which the “whole-cell patch clamp, agonist current at 1 μM” value at TRPV1 [2] is reported as “OLDA elicited whole‐cell currents that displayed similar kinetics to that observed with capsaicin”.
